# Measured values: patent publication US20070129434A1, “Analgesics and methods of use” (priority 2002, published 2007)
# Values joined by “and” are separate entries in the source; they are usually repeats but may differ in a detail not shown here. Equal values may be shown once. Where a name gives a salt, the structure may show the parent alone.
# Columns and labels:
# rat α3β4 nAChRs = target: T1, rat α3β4 nAChRs (Rattus norvegicus, UniProt P04757+P12392); test: cell-based; assay type: cell-based; settings: for IC50: inhibition of 86Rb+ efflux stimulated by 100 μM nicotine, KXα3β4R2 cells, mean ± standard error; for type of receptor blockade: nicotine concentration-response curves in presence of antagonist
# T1 construct: expressed in transfected cells
# Description: Cell Culture. The cell line KXα3β4R2 was established previously by stably cotransfecting human embryonic kidney-293 cells with the rat α3 and β4 nAChR subunits genes (Xiao et al., 1998). Cells were maintained in minimum essential medium supplemented with 10% fetal bovine serum, 100 units/ml penicillin G, […], and 0.7 mg/ml of geneticin (G418) at 37° C. with 5% CO2 in a humidified incubator.
# ^86Rb^+ Efflux Assay. Function of nAChRs expressed in the transfected cells was measured using a ^86Rb^+ efflux assay as described previously (Xiao et al., 1998). In brief, cells in the selection growth medium were plated into 24-well plates coated with poly(D-lysine). The plated cells were grown at 37° C. for 18 to 24 h to reach 70 to 95% confluence. The cells were then incubated in growth medium (0.5 ml/well) containing ^86Rb^+ (2 μCi/ml) for 4 h at 37° C. The loading mixture was then aspirated and the cells were washed three times with buffer (15 mM HEPES, 140 mM NaCl, 2 mM KCl, 1 mM MgSO4, 1.8 mM CaCl, 11 mM glucose, pH 7.4; 1 ml/well) for 30 s, 5 min, and 30 s, respectively. One milliliter of buffer, with or without compounds to be tested, was then added to each well. After incubation for 2 min, the assay buffer was collected for measurements of ^86Rb^+ released from the cells. Cells were then lysed by adding 1 ml of 100 mM NaOH to each well, and the lysate was collected for determination of the amount of ^86Rb^+ that was in the cells at the end of the efflux assay. Radioactivity of assay samples and lysates was measured by liquid scintillation counting. Total loading (cpm) was calculated as the sum of the assay sample and the lysate of each well. The amount of ^86Rb^+ efflux was expressed as a percentage of ^86Rb^+ loaded.
# Experiments with antagonists were done in two different ways. […] EC50, Emax, and IC50, values were determined by nonlinear least-squares regression analyses (GraphPad, San Diego, Calif.).
# [1] = target: T2, α3β4 receptor agonist recognition sites (Rattus norvegicus, UniProt P04757+P12392); test: [3H]EB ligand binding in membrane homogenates from KXα3β4R2 cells
# T2 construct: expressed in transfected cells
# Source text: Bound and free ligands were separated by vacuum filtration through Whatman GF/C filters treated with 0.5% polyethylenimine. […] Specific binding was defined as the difference between total binding and nonspecific binding.
# [2] = cited from earlier work
# [3] = tested on: glutamate stimulated catecholamine release; assay type: cell-based, rat; settings: 1 mM glutamate for 2 min, hippocampus and striatum slices; for block of glutamate stimulated catecholamine release: 10 μM
# Description: The hippocampus and striatum are both important and well-studied anatomical areas of the brain. The hippocampus is associated with learning and memory functions while the striatus is linked to motor function. Slices were loaded with [^3H]norepinephrine or [^3H]dopamine and then exposed to 1 mM glutamate for 2 min in the absence or presence of MK-801, d-methadone or (+)-EDDP. The baseline release was measured in the absence of glutamate.
# [4] = tested on: morphine, methamphetamine, and nicotine self-administration; settings: rats, 5-30 mg/kg; cited from earlier work
# Swiss-Webster mice = test: Warm-water tail-withdrawal nociception assay; assay type: in vivo; settings: either enantiomer, 40 μg intracerebrally
# Description: To confirm their suspicions that the compounds of the present invention, do in fact have an analgesic effect, the inventors experimented with mice. […] Each enantiomer of EDDP, in 40 μg doses, was administered intracerebrally to the mice. The animals were monitored for baseline sensitivity using the warm-water tail-withdrawal nociception assay and the latency to tail withdrawal was monitored as a measurement of analgesia. […] Thus, it is clear that the d-methadone metabolite EDDP has significant analgesic effect. Likewise, the metabolite EMDP and the structural analogs of both EDDP and EMDP are expected to do the same.
# [5] = blocking nicotine-stimulated 86Rb+ efflux
# T1 sequence (P04757 26-499): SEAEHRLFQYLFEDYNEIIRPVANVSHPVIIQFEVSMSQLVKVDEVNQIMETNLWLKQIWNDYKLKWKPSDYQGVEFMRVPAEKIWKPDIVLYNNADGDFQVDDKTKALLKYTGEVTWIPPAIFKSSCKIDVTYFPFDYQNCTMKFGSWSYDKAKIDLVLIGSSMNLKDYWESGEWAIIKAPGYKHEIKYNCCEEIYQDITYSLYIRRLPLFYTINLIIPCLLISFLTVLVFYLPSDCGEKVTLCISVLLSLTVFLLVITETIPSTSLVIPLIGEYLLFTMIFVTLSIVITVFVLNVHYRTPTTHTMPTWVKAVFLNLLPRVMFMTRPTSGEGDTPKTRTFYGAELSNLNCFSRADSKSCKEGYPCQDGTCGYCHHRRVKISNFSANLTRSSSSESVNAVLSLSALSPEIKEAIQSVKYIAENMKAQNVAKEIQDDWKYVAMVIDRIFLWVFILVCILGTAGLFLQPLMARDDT
# T1 sequence (P12392 21-495): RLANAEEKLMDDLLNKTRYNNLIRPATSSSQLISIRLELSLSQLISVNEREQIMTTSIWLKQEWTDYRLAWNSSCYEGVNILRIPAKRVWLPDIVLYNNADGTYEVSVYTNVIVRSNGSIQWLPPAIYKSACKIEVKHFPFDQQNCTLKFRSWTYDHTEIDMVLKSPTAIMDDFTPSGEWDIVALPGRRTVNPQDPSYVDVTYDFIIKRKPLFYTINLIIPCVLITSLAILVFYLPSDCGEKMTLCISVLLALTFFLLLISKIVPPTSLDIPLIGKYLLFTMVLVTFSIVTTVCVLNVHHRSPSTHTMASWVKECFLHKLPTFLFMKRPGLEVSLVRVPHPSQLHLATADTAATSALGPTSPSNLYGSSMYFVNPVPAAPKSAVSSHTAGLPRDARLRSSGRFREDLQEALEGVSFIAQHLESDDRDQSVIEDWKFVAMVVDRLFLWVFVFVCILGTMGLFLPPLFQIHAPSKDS
# T2 sequence (P04757 26-499): as the sequence (P04757 26-499) above
# T2 sequence (P12392 21-495): as the sequence (P12392 21-495) above
compound,measurement,setting,value
"CCC(=O)C(CC(C)N(C)C)(c1ccccc1)c1ccccc1 (racemic) [methadone, (O)-Methadone hydrochloride]",block of nicotine-stimulated 86Rb+ efflux,rat α3β4 nAChRs; 100 μM nicotine plus 200 μM methadone,completely blocked
same,IC50,rat α3β4 nAChRs,~2 µM
same,increase of 86Rb+ efflux (agonist effect),rat α3β4 nAChRs; methadone alone at concentrations up to 1 mM,did not increase
same,type of receptor blockade,rat α3β4 nAChRs,noncompetitive mechanism
same,competition for [3H]EB binding sites (in words),[1],does not compete effectively
same,steady-state plasma concentration,[2]; patients taking methadone chronically,exceed 1 μM
same,plasma concentration following a single dose,[2]; single dose of methadone,approximately 0.25 μM
"CCC1=N[C@H](C)CC1(c1ccccc1)c1ccccc1 [(+)-EMDP, R-(+)-2-ethyl-5-methyl-3,3-diphenyl-1-pyrroline hydrochloride]",IC50,rat α3β4 nAChRs,5.8 ± 1 µM
"CCC(=O)C(C[C@H](C)N(C)C)(c1ccccc1)c1ccccc1.Cl [(+)-Methadone, S-(+)-methadone hydrochloride]",IC50,rat α3β4 nAChRs,2.5 ± 0.2 µM
same,block of glutamate stimulated catecholamine release,[3],partial block
"CCC1=[N+](C)[C@@H](C)CC1(c1ccccc1)c1ccccc1 [(−)-EDDP, S-(−)-2-ethyl-1,5-dimethyl-3,3-diphenylpyrrolinium perchlorate]",IC50,rat α3β4 nAChRs,0.4 ± 0.1 µM
"CCC1=N[C@@H](C)CC1(c1ccccc1)c1ccccc1 [(−)-EMDP, S-(−)-2-ethyl-5-methyl-3,3-diphenyl-1-pyrroline hydrochloride]",IC50,rat α3β4 nAChRs,6.3 ± 0.7 µM
"CCC(=O)C(C[C@@H](C)N(C)C)(c1ccccc1)c1ccccc1 [(−)-Methadone, R-(−)-methadone hydrochloride]",IC50,rat α3β4 nAChRs; hydrochloride,1.9 µM and 2 µM
COc1ccc2c(c1)[C@]13CCCC[C@@H]1[C@H](C2)N(C)CC3 [Dextromethorphan],IC50,rat α3β4 nAChRs,8.9 ± 1.1 µM
same,"self-administration of morphine, methamphetamine, and nicotine",[4],decrease
CN1CC[C@@]23CCCC[C@@H]2[C@@H]1Cc1ccc(O)cc13 [Dextrorphan],IC50,rat α3β4 nAChRs,29.6 ± 5.7 µM
C/C=C1/N(C)C(C)CC1(c1ccccc1)c1ccccc1 (stereo not shown) [EDDP],potency relative to mecamylamine,rat α3β4 nAChRs; [5],twice as potent
same,potency relative to methadone,rat α3β4 nAChRs; [5],about 5 times more potent
same,IC50,rat α3β4 nAChRs,~0.4 µM
same,tail withdrawal latency,Swiss-Webster mice,increased
same,peak plasma concentration,[2]; following administration of methadone,~0.2 µM
"CC[C@H](OC(C)=O)C(C[C@H](C)N(C)C)(c1ccccc1)c1ccccc1.Cl [LAAM, (−)-α-acetylmethadol hydrochloride]",IC50,rat α3β4 nAChRs,2.5 ± 0.4 µM
same,type of receptor blockade,rat α3β4 nAChRs,noncompetitive blockers
C[C@]12N[C@H](Cc3ccccc31)c1ccccc12 [MK-801],IC50,rat α3β4 nAChRs,26.6 ± 9.6 µM
same,block of glutamate stimulated catecholamine release,[3],partial block
"CCC(=O)O[C@](Cc1ccccc1)(c1ccccc1)[C@H](C)CNC [Norpropoxyphene, (+)-α-N-norpropoxyphene maleate]",IC50,rat α3β4 nAChRs,1.8 ± 0.1 µM
"CCC(=O)O[C@](Cc1ccccc1)(c1ccccc1)[C@H](C)CN(C)C [Propoxyphene, (+)-α-propoxyphene hydrochloride]",IC50,rat α3β4 nAChRs,2.7 ± 0.4 µM
CN1CCCC1c1cccnc1 (stereo not shown) [nicotine],stimulation of 86Rb+ efflux over basal levels,rat α3β4 nAChRs,approximately 10 fold
"R-(+)-2-ethyl-1,5-dimethyl-3,3-diphenylpyrrolinium perchlorate [(+)-EDDP]",IC50,rat α3β4 nAChRs,0.4 ± 0.2 µM
same,type of receptor blockade,rat α3β4 nAChRs,noncompetitive blockers
same,effect on glutamate stimulated catecholamine release,[3]; until 100 μM,no effect
